{"source": "patent US8283481B2", "about": "“Inhibitors of a 9-cis epoxycarotenoid dioxygenase” (National Research Council of Canada, priority 2008, dated 2012)", "key": {"recombinant AtNCED3": {"biological_target": "T1, recombinant AtNCED3 (Arabidopsis thaliana, UniProt Q9LRR7)", "T1 construct": "glutathione-S-transferase (GST) (C); made in house; host or cells: E. coli BL21(DE3), pRL296 vector", "T1 sequence (Q9LRR7 41-599)": "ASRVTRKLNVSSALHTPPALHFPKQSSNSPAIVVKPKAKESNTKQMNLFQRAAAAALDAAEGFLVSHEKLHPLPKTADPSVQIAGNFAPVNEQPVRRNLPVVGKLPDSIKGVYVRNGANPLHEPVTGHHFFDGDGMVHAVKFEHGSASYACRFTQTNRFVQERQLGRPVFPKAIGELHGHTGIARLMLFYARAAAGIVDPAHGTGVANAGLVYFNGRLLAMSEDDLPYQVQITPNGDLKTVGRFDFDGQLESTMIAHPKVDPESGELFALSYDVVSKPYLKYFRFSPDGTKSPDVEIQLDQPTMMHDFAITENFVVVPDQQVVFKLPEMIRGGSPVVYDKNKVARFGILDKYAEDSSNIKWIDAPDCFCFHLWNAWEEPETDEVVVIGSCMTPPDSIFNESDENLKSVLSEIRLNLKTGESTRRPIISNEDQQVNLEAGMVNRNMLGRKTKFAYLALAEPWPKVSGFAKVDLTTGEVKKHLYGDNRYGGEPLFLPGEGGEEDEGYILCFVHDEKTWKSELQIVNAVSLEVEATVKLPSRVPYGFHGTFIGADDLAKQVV", "test": "Recombinant AtNCED3 in vitro enzyme assay (HPLC, cleavage of 9-cis-neoxanthin)", "assay_type": "biochemical", "details": "for relative inhibition of AtNCED3 activity (in words): in vitro enzyme assay, 1 mM concentration (FIG. 5); for Ki: Dixon plot, competitive inhibition, 0-250 μM inhibitor, 9-cis-neoxanthin at 50 (55), 30 and 10 μM", "text": "Fresh spinach was macerated under liquid nitrogen and extracted five times with three volumes of methanol/0.1% KOH. Samples were dried using a roto-evaporator, resuspended in acetone and then chilled on ice for one hour. The solvent was subsequently transferred to a new flask, roto-evaporated and resuspended in acetonitrile/acetone (1:1) mixture. The mixture was applied to a gravity flow column containing C-18 silica gel (Sigma) equilibrated in 65% acetonitrile/35% water (solvent C). The column was washed with 49% acetone (solvent D)/51% solvent A and 20 mL of 55% solvent D/45% solvent A while collecting 5 mL fractions. Fractions containing neoxanthin were pooled, dried, and resuspended in 100 μL of methanol. The pooled mixture was separated using an Agilent 1100 series HPLC and a Supelcosil™ LC-18 (25 cm×10 mm, 5 m) (Supelco) column equilibrated with solvent A. The HPLC method consisted of a linear gradient over 30 minutes from 100% solvent A to 100% solvent D with a flow rate of 4 mL/minute at 22° C. and monitored with a PDA detector at 436 nm. The neoxanthin fractions were collected, dried and resuspended in ethanol. Neoxanthin was quantified by determining its OD439 using a PerkinElmer Lambda 35 UV/VIS Spectrometer and applying its extinction coefficient of 2243 (A^1%1cm).^30\nAtNCED3 was over-expressed using the pRL296 expression vector (a gift from M. Cygler, BRI, Montreal) in E. coli (BL21)DE3 cells as a glutathione-S-transferase fusion protein and affinity purified using glutathione sepharose 4 fast flow resin (GE Healthcare) as described previously.^35 Essentially, cells were grown to an OD600 of 0.45 at 37° C. and 200 rpm shaking. The culture was induced with 1 mM isopropyl-β-d-thiogalactoside for 16 h at 15° C. and 200 rpm shaking. The cells were pelleted and resuspended in 50 mM Tris-HCl (pH 8.0) 1 mM DTT and 0.5% protease inhibitor cocktail set III (CalBiochem). Cells were lysed using a french press at 20,000 psi and affinity purified as per manufacturer's instructions (GE Healthcare). Protein concentration was determined by the method of Bradford.^36\nEnzymatic assays contained 100 mM Bis-Tris (pH 6.7), […], 10 mM ascorbate, 0.05% Triton™ X-100, catalase (1 mg/mL), neoxanthin and inhibitor to a total volume of 5 L of ethanol and 8 g AtNCED3 to a total assay volume of 100 L. Assays were incubated at 22° C. for 20 min. The assays were stopped with the addition of 50 L of 25% Triton™ X-100 and extracted with 150 L of ethyl acetate. All procedures were performed under red-light to minimize photo-induced damage to assay components and products.^6 Fine chemicals and solvents were purchased from Sigma-Aldrich. 75 μL of the assay extract was injected into an Agilent 1100 series HPLC machine equipped with a Supelcosil™ LC-18 (3.3 cm×4.6 mm, 3 m) (Supelco) column pre-equilibrated with 15% acetonitrile (solvent B)/85% water (solvent A). Solvent B increased to 35% over ten minutes, followed by a linear gradient of 65% solvent B to 100% solvent D over 10 minutes. Solvent D was maintained at 100% for 2 minutes and then the column was returned to 15% solvent B for 5 min. The flow rate was maintained at 1.5 mL/min. and monitored with a photodiode array (PDA) detector at 436 and 262 nm.\nEvaluation of recombinant AtNCED3 kinetic parameters for Km was accomplished using Michaelis-Menten equation plotted with EnzFitter™ v2.0.18.0 (Biosoft). The Ki for inhibitors was determined using a Dixon plot and concentration ranges of 250, 200, 150, 100, 50 and 0 μM inhibitor in the presence of either 55, 30 or 10 μM 9-cis-neoxanthin 2.^5"}, "[1]": {"tested_on": "Arabidopsis thaliana Col-0 seeds", "test": "Seed germination assay", "assay_type": "in vivo", "description": "Arabidopsis thaliana Col-0 seeds were sterilized by washing them with 10% sodium hypochlorite and 20% sodium dodecyl sulfate (Sigma) for five minutes and then rinsing four times with sterile water. Seeds were moist chilled for 4 days and then plated on germination medium (0.41% MS salts, 1% sucrose, 0.05% MES and 0.1% Gamborg's vitamins, pH 5.7, 0.7% agar) (Sigma) containing either 0.1, 0.33, 1.0 or 3.33 μM of inhibitor or (+)-ABA 1. As a control, seeds were sewn and germinated on media only without inhibitors or (+)-ABA 1. Germination was recorded over seven days and indexes calculated as described previously.^40"}, "[2]": {"tested_on": "ABA and catabolites in Arabidopsis thaliana Col-0 plants", "test": "Total ABA metabolite levels in mannitol stressed plants treated with SLCCD inhibitors", "assay_type": "in vivo", "details": "33 μM inhibitor, mannitol stress, first 6 hours", "description": "For each condition to be tested, three hundred wild-type Arabidopsis thaliana Col-0 seeds (LEHLE) were sterilized, vernalized and sewn onto 200 mL of Sunshine Mix #3 (Sun Gro) potting material in an 8×8×4 cm pot. Plants were watered continuously with 25 g/100 mL of 20-20-20 (PlantProd™) fertilizer and grown at 22° C. with a 16 hour photoperiod for 22 days. Plants were pre-treated with 50 mL/pot of Buffer A (10 mM HEPES pH 6.5) (Sigma)+/−10 or 33 μM test compound for 2 hours. Plants were then soaked with 50 mL/pot of Buffer A containing 0.4 M mannitol (Sigma)+/−10 or 33 μM test compound. Non-treated/non-stressed control plants were simply soaked in Buffer A at the designated time points. […] Half of the tissue samples were lyophilized for metabolite profiling and the other half taken for quantitative reverse-transcription polymerase chain reaction (qRT-PCR) analysis.\nFreeze-dried tissue was homogenized using a multi-tube ball mill (Mini-BeadBeater-96™, Biospec Products Inc., Bartlesville, Okla., USA) and 50 mg of each sample was weighed out into individual Falcon tubes. To each sample, 100 μL of a cocktail of internal standards comprised of (−)-5,8′,8′,8′-d4-ABA, (−)-7′,7′,7′-d3-PA, (−)-5,8′,8′,8′-d4-7′OH ABA, (−)-7′,7′,7′-d3-DPA and (+)-4,5,8′,8′,8′-d5-ABAGE, each at a concentration of 0.2 ng/μL and dissolved in a mixture of water:acetonitrile (1:1, v/v) with 0.5% glacial acetic acid, was added. Further, 3 mL of isopropanol:water:glacial acetic acid (80:19:1, v/v/v) extraction solvent was added, and samples were placed in the fridge (4° C., in the dark) on an orbital shaker at about 350 rpm. After 18-24 hours, the samples were centrifuged at 4.4 krpm for 10 min, the supernatant was transferred to a disposable culture tube, and a second portion of 500 μL extraction solvent mixture was added to wash the pellet. After vortexing and centrifuging again at 4.4 krpm for 10 min, each wash was combined with its appropriate supernatant. The organic extract was dried under reduced pressure, then re-dissolved in 100 μL methanol:glacial acetic acid (99:1, v/v) followed by 900 μL of aqueous 1% glacial acetic acid. This mixture was extracted with 2 mL hexane, and then the aqueous layer was dried down under reduced pressure. The sample was further reconstituted in 2 mL aqueous 1% glacial acetic acid and loaded onto an Oasis MCX SPE cartridge (3 cc, Waters Corporation, Mississauga, Ontario, Canada). After a wash with 3 mL aqueous 1% glacial acetic acid, samples were eluted with 1 mL methanol:glacial acetic acid (99:1, v/v) and then dried down under reduced pressure. The extract was re-dissolved in 100 μL methanol:glacial acetic acid (99:1, v/v) followed by 900 μL of aqueous 1% glacial acetic acid. This mixture was further cleaned on an Oasis HLB SPE cartridge (1 cc, Waters Corporation, Mississauga, Ontario, Canada). After a wash with 1 mL aqueous 1% glacial acetic acid, the fraction containing ABA and ABA metabolites was eluted with 1 mL acetonitrile:water:glacial acetic acid (30:69:1, v/v/v) and then was evaporated to dryness. The final residue was dissolved in 200 μL of acetonitrile:water (15:85, v/v) containing 0.1% glacial acetic acid and 100 pg/μL (±)-3′,5′,5′,7′,7′,7′-d6-ABA as a recovery standard. Finally, the sample was subjected to LC-ES-MS/MS analysis and quantification, as described in Owen and Abrams, 2008.^39"}, "cowpea NCED enzyme": {"biological_target": "cowpea NCED enzyme", "details": "background, references 17, 18; read-out: Ki, competitive inhibition of cowpea NCED enzyme; cited from earlier work"}, "[3]": {"tested_on": "ABA metabolite accumulation", "details": "background, references 17, 18; cited from earlier work"}}, "note": "Entries after “also recorded” stand apart in the source; their conditions may differ."}
{"compound": "CC(=C/C=C/C(C)=C/C=C/C=C(C)/C=C/C=C(\\C)C=C=C1C(C)(C)C[C@H](O)C[C@@]1(C)O)/C=C/[C@@]12O[C@]1(C)C[C@@H](O)CC2(C)C", "note": "(relative stereo) [compound 2, 9-cis-Neoxanthin, reference compound]", "values": [{"measurement": "Km", "setting": "recombinant AtNCED3; cleavage of 9-cis-neoxanthin 2 by recombinant AtNCED3, Michaelis-Menten plot", "value": 24, "unit": "µM"}]}
{"compound": "CC1=CC(=O)CC(C)(C)C1(O)/C=C/C(C)=C\\C(=O)O", "note": "(single isomer, unassigned; (+)) [(+)-ABA 1, Abscisic acid, reference compound]", "values": [{"measurement": "reduction of seed germination", "setting": "[1]; 0.33 μM in germination medium", "value": 47, "unit": "%"}, {"measurement": "reduction of seed germination", "setting": "[1]; 1 μM in germination medium", "value": 61, "unit": "%"}, {"measurement": "reduction of seed germination", "setting": "[1]; highest concentration tested (3.33 μM)", "value": 96, "unit": "%"}]}
{"compound": "CCSC/C=C(/C)C#C[C@]1(O)[C@H](C)CC(=O)CC1(C)C", "note": "[Compound 11, (4S,5R)-(3′Z)-4-(5′-(Ethylthio)-3′-methylpent-3′-en-1′-ynyl)-4-hydroxy-3,3,5-trimethylcyclohexanone]", "values": [{"measurement": "relative inhibition of AtNCED3 activity (in words)", "setting": "recombinant AtNCED3", "value": "reduced activity"}]}
{"compound": "CCSC/C=C(/C)C#C[C@@]1(O)[C@@H](C)CC(=O)CC1(C)C", "note": "[Compound 12, (4R,5S)-(3′Z)-4-(5′-(Ethylthio)-3′-methylpent-3′-en-1′-ynyl)-4-hydroxy-3,3,5-trimethylcyclohexanone]", "values": [{"measurement": "relative inhibition of AtNCED3 activity (in words)", "setting": "recombinant AtNCED3", "value": "completely inhibited; also recorded: inhibited the enzyme as strongly as the more xanthoxin-like compounds"}]}
{"compound": "CCSC/C=C(/C)C#C[C@]1(O)[C@H](C)C[C@@H](O)CC1(C)C", "note": "[Compound 14, (1S,4R,6R)-(3′Z)-1-(5′-(Ethylthio)-3′-methylpent-3′-en-1′-ynyl)-2,2,6-trimethylcyclohexane-1,4-diol]", "values": [{"measurement": "relative inhibition of AtNCED3 activity (in words)", "setting": "recombinant AtNCED3", "value": "did not afford greater activity"}]}
{"compound": "CCSC/C=C(/C)C#C[C@@]1(O)[C@H](C)C[C@@H](O)CC1(C)C", "note": "[Compound 15, (1R,4R,6R)-(3′Z)-1-(5′-(Ethylthio)-3′-methylpent-3′-en-1′-ynyl)-2,2,6-trimethylcyclohexane-1,4-diol]", "values": [{"measurement": "relative inhibition of AtNCED3 activity (in words)", "setting": "recombinant AtNCED3", "value": "did not afford greater activity"}]}
{"compound": "COC(=O)CN(C/C=C/c1ccc(OC)c(OC)c1)Cc1ccc(F)cc1", "note": "[compound 9, Abamine, reference compound]", "values": [{"measurement": "Ki", "setting": "recombinant AtNCED3", "value": 132, "unit": "µM"}, {"measurement": "levels of ABA and catabolites at first time point (in words)", "setting": "[2]", "value": "higher levels of ABA and catabolites at the first time point"}, {"measurement": "Ki", "setting": "cowpea NCED enzyme", "value": 18.5, "unit": "µM"}, {"measurement": "reduction of ABA metabolite accumulation", "setting": "[3]", "value": 35, "unit": "%"}]}
{"compound": "Abamine SG [compound 10]", "values": [{"measurement": "Ki", "setting": "recombinant AtNCED3", "value": 86, "unit": "µM"}, {"measurement": "Ki", "setting": "cowpea NCED enzyme", "value": 38.8, "unit": "µM"}, {"measurement": "reduction of ABA metabolite accumulation", "setting": "[3]", "value": 77, "unit": "%"}]}
